Data taken from patent publication US9868739B2, “Salt(s) of 7-cyclopentyl-2-(5-piperazin-1-yl-pyridin-2-ylamino)-7H-pyrrolo[2,3-d]pyrimidine-6-carboxylic acid dimethylamide and processes of making thereof” (Novartis AG, priority 2010, dated 2018).
Blank lines part the entries; values can stand above or below the compound they belong to.

How the values were obtained:
[1] = Dynamic Vapor Sorption (DVS), moisture cycles 0-90-0% RH; assay type: physicochemical
[2] = Dynamic Vapor Sorption (DVS), moisture cycle 0-80-0% RH; assay type: physicochemical
physchem = details: water

- moisture absorbed ([1]; at 90% RH, in each cycle (0 to 90 to 0% RH, two cycles)): up to 2%
- physical form after exposure ([1]; upon exposure to 90% RH (XRPD, DSC, TGA)): change in physical form
- Change In Mass (%) Hysteresis ([2]; Cycle 1, target RH 50.0%): 0.0074%
- Change In Mass (%) Hysteresis ([2]; Cycle 1, target RH 60.0%): 0.0140%
- Change In Mass (%) Desorption ([2]; Cycle 1, target RH 80.0%): 0.5200%
- moisture absorbed ([2]; at 80% RH (0 to 80 to 0% RH cycle)): up to 0.5%
- physical form after exposure ([2]; upon exposure to 80% RH (XRPD)): stability of the physical form
Compound: CN(C)C(=O)c1cc2cnc(Nc3ccc(N4CCNCC4)cn3)nc2n1C1CCCC1.O=C(O)CCC(=O)O [Compound of Formula (II), 7-Cyclopentyl-N,N-dimethyl-2-(5-(piperazin-1-yl)pyridin-2-ylamino)-7H-pyrrolo[2,3-d]pyrimidine-6-carboxamide succinate]

- solubility (physchem; solubility): < 0.5 mg/mL
Compound: CN(C)C(=O)c1cc2cnc(Nc3ccc(N4CCNCC4)cn3)nc2n1C1CCCC1.O=C(O)CCC(=O)O [hydrate form, succinate salt of 7-Cyclopentyl-2-(5-piperazin-1-yl-pyridin-2-ylamino)-7H-pyrrolo[2,3-d]pyrimidine-6-carboxylic acid dimethylamide]

- solubility (physchem; solubility in water): ~30 mg/mL
Compound: CN(C)C(=O)c1cc2cnc(Nc3ccc(N4CCNCC4)cn3)nc2n1C1CCCC1.O=C(O)CCC(=O)O [non-hydrate form, succinate salt of 7-Cyclopentyl-2-(5-piperazin-1-yl-pyridin-2-ylamino)-7H-pyrrolo[2,3-d]pyrimidine-6-caboxylic acid dimethylamide]
